Measurements: patent publication USRE39616E1, “Aminoindan derivatives” (priority 1996, dated 2007)
Where two headings read alike, the source gives them in different places.

How the values were obtained:
mice = conditions: mouse, in vivo
Method: Therapeutic Ratio was calculated as LD50 divided by ED50 of ex vivo acetylcholine esterase inhibition.

MAO-A [1] = molecular target: T1, MAO-A (Rattus norvegicus, UniProt P21396); test: Inhibition of MAO activity in vitro, 5-HT as substrate; type: biochemical; design: The MAO enzyme source was a homogenate of rat brain in 0.3M sucrose; from tissue; host or cells: rat brain homogenate, 600 g supernatant; conditions: 5-HT substrate
T1 sequence (P21396 1-526): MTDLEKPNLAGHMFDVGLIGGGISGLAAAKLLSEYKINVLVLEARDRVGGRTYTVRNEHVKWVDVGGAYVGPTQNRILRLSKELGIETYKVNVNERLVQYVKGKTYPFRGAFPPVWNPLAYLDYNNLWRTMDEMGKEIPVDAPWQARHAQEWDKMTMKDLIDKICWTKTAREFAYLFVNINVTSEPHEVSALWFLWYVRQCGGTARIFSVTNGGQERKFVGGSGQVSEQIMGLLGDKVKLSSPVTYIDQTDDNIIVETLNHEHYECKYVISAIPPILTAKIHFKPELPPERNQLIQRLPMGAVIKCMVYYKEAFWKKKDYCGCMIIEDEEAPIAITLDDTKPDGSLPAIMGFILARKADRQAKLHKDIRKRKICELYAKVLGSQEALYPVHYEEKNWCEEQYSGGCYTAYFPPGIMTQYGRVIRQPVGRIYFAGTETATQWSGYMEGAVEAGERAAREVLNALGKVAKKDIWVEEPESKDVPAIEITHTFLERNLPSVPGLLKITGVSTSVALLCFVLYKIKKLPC
Method: (§1) Substrate concentrations used were 50 μM (PEA) and 1 mM (5-HT).

MAO-B [2] = molecular target: T2, MAO-B (Mus musculus, UniProt Q8BW75); test: Inhibition of MAO activity ex vivo (brain); type: in vivo, mice; conditions: mice, brain tissue
T2 construct: from tissue; host or cells: mouse brain
T2 sequence (Q8BW75 1-520): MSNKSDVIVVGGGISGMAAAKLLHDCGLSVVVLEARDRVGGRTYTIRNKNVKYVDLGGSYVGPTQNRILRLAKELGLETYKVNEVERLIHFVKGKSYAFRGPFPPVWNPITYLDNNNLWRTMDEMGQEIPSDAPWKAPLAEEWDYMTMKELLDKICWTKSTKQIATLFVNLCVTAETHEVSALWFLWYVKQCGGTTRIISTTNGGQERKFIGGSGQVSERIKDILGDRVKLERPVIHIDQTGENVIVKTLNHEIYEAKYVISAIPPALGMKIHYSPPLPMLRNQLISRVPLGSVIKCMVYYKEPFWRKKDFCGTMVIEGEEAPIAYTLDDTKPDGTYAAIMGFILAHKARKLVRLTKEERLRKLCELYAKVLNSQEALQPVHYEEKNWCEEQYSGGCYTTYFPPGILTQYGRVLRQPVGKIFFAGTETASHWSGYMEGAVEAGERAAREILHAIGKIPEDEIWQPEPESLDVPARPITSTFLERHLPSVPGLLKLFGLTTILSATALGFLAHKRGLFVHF
Method: as §1
(§2) Male Sabra mice, weighing 45-50 g were injected with test compound solutions (prepared in 0.9% saline). Each dose was administered to two or three mice. The mice were sacrificed two hours after drug administration or at a time corresponding to the peak AChE inhibition time (see Table 11). The brain and liver were rapidly dissected and stored in appropriate vials on ice. The tissues were weighed, diluted to ½ in sucrose 0.3M and stored at −20° C. before performance of the MAO assay described above. The results given in Table 11 relate to measurements made on brain tissue only.

MAO-A [3] = molecular target: T3, MAO-A (Mus musculus, UniProt Q64133); test: Inhibition of MAO activity ex vivo (brain); type: in vivo, mice; conditions: mice, brain tissue
T3 construct: from tissue; host or cells: mouse brain
T3 sequence (Q64133 1-526): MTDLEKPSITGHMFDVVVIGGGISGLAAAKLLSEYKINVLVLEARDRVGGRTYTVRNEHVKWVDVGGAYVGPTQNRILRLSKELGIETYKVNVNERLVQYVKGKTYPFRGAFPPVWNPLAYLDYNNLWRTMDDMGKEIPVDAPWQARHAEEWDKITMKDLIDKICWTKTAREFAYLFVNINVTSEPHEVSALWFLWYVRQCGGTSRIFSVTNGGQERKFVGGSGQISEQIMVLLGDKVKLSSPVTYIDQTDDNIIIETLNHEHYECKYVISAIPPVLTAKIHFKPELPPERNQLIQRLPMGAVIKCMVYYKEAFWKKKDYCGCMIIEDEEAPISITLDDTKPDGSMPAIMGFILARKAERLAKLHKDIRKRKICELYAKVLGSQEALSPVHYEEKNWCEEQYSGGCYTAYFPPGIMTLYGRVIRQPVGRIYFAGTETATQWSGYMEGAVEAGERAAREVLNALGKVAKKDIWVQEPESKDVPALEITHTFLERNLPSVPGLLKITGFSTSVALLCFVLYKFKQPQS
Method: as §1, §2

whole brain AChE = molecular target: T4, whole brain AChE (Mus musculus, UniProt P21836); conditions: for AChE Inhibition Ex vivo ED50 (AC): mice, whole brain, at peak of activity
T4 sequence (P21836 32-614): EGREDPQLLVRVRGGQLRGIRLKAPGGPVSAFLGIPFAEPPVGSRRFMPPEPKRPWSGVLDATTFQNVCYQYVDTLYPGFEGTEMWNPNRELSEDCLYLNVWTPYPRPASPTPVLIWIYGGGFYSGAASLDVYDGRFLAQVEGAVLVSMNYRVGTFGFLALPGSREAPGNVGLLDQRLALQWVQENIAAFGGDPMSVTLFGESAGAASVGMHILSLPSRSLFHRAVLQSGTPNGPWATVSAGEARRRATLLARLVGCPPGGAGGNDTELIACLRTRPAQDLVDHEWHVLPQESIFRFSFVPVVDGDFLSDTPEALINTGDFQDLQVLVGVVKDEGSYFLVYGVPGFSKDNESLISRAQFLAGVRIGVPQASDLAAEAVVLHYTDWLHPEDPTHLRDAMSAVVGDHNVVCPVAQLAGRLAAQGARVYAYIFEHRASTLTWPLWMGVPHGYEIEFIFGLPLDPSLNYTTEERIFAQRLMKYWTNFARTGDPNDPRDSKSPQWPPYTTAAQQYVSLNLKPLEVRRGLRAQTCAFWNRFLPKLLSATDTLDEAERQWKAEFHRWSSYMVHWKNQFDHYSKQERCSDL
Method: Test drugs or saline were administered sub-cutaneously to male mice (Sabra strain, 28-35 g). […] The mice were sacrificed 15, 30, 50, 70, 90, 120 or 180 minutes after drug administration, the brains rapidly removed (minus cerebellum), weighed and homogenized in 0.1 M phosphate buffer, pH 8.0, containing Triton (1 mg/100 g tissue) and centrifuged to remove cell debris. Aliquots (25 μl) of the supernatant were then incubated with acetylthiocholine and DTNB. AChE activity was measured as described above. The % inhibition of whole brain AChE by each dose of drug was calculated by comparison with enzyme activity from 3 saline treated control mice run at the same time.

MAO-B [4] = molecular target: T5, MAO-B (Rattus norvegicus, UniProt P19643); test: Inhibition of MAO activity in vitro, PEA as substrate; type: biochemical; design: The MAO enzyme source was a homogenate of rat brain in 0.3M sucrose; from tissue; host or cells: rat brain homogenate, 600 g supernatant
T5 sequence (P19643 1-520): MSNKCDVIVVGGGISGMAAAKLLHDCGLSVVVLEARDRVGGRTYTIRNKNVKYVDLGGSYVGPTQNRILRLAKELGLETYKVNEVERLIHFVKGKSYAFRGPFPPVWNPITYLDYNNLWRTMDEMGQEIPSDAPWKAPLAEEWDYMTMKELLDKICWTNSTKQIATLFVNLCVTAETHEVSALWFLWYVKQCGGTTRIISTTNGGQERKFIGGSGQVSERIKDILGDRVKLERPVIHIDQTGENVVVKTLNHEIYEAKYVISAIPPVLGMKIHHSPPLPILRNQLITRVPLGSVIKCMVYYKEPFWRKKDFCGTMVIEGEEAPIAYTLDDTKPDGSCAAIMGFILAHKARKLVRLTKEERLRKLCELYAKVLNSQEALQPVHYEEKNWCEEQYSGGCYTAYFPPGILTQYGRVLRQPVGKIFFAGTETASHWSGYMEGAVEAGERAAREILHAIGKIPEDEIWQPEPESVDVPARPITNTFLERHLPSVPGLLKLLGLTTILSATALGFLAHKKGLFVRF
Method: as §1

[5] = molecular target: T6, Human erythrocyte acetylcholinesterase (Homo sapiens, UniProt P22303); test: biochemical; type: biochemical; conditions: AChE Inhibition In vitro IC50
T6 construct: Human erythrocyte acetylcholinesterase (type XIII, Sigma Israel); purchased Sigma Israel type XIII; host or cells: human erythrocytes
Method: Human erythrocyte acetylcholinesterase (type XIII, Sigma Israel), was prepared in a stock solution of 1 U/ml, containing Triton (1%) and bovine serum albumin (0.05%) in phosphate buffer (pH 8). The enzyme (0.05U) was incubated with 3-5 different concentrations of test compound (in triplicate) for periods of from 15 to 60 minutes at 37° C. […] The percentage inhibition of AChE by each concentration of drug is calculated by comparison with that of enzyme in the absence of drug.

T6 sequence (P22303 32-617 isoform P22303-2 limits assumed): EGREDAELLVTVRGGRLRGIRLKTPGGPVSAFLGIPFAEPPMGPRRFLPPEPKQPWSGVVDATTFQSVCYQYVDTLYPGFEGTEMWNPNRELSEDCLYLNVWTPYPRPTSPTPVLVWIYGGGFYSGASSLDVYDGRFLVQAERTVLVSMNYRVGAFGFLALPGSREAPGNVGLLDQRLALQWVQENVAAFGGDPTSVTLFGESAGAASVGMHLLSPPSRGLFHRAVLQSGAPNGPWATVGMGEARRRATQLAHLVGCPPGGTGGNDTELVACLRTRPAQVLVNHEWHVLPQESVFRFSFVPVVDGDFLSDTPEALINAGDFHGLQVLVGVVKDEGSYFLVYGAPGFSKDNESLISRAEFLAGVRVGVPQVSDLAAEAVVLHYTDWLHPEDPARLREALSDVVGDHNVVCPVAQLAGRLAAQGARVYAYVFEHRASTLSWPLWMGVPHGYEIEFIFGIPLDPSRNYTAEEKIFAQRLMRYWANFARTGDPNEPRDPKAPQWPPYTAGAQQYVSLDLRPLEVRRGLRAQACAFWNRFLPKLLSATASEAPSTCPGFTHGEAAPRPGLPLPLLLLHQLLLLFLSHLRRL

| SMILES | Acute Toxicity LD50 (LD) (mice) [µmol/kg] | IC50 (MAO-A [1]; MAO-A Inhibition In vitro IC50, rat brain homogenate) [µM] | MAO-B Inhibition Ex vivo ED50 (MAO-B [2]) [µmol/kg] | MAO-A Inhibition Ex vivo ED50 (MAO-A [3]) [µmol/kg] | AChE Inhibition Ex vivo ED50 (AC) (whole brain AChE) [µmol/kg] | IC50 (MAO-B [4]; MAO-B Inhibition In vitro IC50, rat brain homogenate) [µM] | IC50 [5] [µM] | Therapeutic Ratio LD/AC (mice) | IC50 (MAO-A [1]; rat brain homogenate, read-out: MAO-A Inhibition In vitro IC50) [µM] | AChE Inhibition Time to peak activity t (whole brain AChE; mouse, in vivo) [min] | IC50 (MAO-B [4]; rat brain homogenate, read-out: MAO-B Inhibition In vitro IC50) [µM] |
| --- | --- | --- | --- | --- | --- | --- | --- | --- | --- | --- | --- |
| C#CCNC1CCc2ccc(OC(=O)N(C)CCCCCC)cc21 (stereo not shown) [Compound 36] | >1000 | > 1000 | >100 | >100 | >400 | > 1000 | 15 |  |  |  |  |
| C#CCNC1CCc2ccc(OC(=O)N(C)Cc3ccccc3)cc21 (stereo not shown) [Compound 63] | 1300 |  | >300 | >300 | 140 |  | 2.5 | 9.3 | 40 | 60 to 90 | 120 |
